Test results as given in ChEMBL document CHEMBL1152560, “Substituted 2-arylbenzothiazoles as kinase inhibitors: hit-to-lead optimization” (Bioorg Med Chem, 2009).

Tests used:
[1] = target: T1, cAMP-dependent protein kinase catalytic subunit PRKX (Homo sapiens) (UniProt P51817); assay: Residual activity of PRKX at 10 uM by microplate scintillation counting
T1 sequence (whole entry): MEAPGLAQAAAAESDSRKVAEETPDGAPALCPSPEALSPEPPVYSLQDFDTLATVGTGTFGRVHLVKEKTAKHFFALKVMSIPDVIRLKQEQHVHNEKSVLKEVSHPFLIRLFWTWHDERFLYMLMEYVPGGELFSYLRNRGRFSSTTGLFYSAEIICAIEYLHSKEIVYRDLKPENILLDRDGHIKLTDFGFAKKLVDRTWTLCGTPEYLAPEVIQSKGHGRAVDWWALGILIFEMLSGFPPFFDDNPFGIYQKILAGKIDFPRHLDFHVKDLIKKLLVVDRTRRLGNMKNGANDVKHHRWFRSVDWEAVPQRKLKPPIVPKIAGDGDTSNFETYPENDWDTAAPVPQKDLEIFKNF

[2] = target: Fibroblast growth factor receptor 2 (Homo sapiens) (UniProt P21802); assay: Residual activity of FGFR2 at 10 uM by microplate scintillation counting
Chain of Fibroblast growth factor receptor 2 (Homo sapiens) (P21802 22-821 limits assumed): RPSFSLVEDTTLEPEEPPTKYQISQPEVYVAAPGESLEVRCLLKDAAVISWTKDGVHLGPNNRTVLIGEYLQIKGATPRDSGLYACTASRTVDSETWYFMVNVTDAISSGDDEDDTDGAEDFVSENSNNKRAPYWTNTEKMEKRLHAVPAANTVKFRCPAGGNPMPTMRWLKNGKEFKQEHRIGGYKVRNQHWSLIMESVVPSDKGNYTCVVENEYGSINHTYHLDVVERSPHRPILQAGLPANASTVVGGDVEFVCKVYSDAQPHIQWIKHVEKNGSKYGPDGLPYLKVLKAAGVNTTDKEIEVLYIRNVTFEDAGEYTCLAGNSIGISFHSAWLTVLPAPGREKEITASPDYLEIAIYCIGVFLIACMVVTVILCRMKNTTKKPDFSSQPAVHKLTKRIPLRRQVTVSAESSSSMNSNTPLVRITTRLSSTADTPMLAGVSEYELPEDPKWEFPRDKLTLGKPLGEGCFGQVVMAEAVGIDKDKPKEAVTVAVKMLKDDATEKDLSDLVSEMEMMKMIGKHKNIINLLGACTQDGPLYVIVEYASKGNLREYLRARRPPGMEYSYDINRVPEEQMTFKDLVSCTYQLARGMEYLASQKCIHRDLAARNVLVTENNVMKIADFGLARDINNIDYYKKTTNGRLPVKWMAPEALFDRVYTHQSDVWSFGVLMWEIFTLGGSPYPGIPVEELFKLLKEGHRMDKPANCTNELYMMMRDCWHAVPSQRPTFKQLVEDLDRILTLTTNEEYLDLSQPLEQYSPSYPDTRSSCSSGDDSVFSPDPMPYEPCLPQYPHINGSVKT

[3] = target: Cyclin-dependent kinase 4/cyclin D1 (Homo sapiens) (UniProt P11802+P24385); assay: Residual activity of CDK4/Cyclin D1 at 0.1 uM by microplate scintillation counting; type: protein-complex assay
[4] = target: Protein kinase C gamma type (Homo sapiens) (UniProt P05129); assay: Residual activity of PKCgamma at 10 uM by microplate scintillation counting
[5] = target: Serine/threonine-protein kinase PLK3 (Homo sapiens) (UniProt Q9H4B4); assay: Residual activity of PLK3 at 1 uM by microplate scintillation counting
Chain of Serine/threonine-protein kinase PLK3 (Homo sapiens) (Q9H4B4 whole entry, looked up): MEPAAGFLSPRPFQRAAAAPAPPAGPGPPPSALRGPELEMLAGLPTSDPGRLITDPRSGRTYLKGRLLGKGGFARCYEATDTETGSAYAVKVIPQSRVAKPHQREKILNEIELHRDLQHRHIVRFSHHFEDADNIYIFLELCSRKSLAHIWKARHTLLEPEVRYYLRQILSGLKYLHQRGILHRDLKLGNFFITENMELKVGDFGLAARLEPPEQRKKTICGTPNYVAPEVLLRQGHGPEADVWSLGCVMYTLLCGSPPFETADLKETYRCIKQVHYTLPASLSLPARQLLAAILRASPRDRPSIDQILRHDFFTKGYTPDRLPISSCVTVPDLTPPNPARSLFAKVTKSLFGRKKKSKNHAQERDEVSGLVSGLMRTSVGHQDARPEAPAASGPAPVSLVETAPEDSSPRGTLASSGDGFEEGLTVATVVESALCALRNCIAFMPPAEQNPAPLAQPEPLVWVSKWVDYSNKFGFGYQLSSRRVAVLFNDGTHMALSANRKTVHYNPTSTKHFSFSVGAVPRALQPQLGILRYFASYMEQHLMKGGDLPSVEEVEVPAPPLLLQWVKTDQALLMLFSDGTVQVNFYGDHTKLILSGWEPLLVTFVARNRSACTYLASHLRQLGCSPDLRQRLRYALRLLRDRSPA

[6] = target: T2, Testis-specific serine/threonine-protein kinase 2 (Homo sapiens) (UniProt Q96PF2); assay: Residual activity of TSK2 at 0.1 uM by microplate scintillation counting
T2 sequence (whole entry): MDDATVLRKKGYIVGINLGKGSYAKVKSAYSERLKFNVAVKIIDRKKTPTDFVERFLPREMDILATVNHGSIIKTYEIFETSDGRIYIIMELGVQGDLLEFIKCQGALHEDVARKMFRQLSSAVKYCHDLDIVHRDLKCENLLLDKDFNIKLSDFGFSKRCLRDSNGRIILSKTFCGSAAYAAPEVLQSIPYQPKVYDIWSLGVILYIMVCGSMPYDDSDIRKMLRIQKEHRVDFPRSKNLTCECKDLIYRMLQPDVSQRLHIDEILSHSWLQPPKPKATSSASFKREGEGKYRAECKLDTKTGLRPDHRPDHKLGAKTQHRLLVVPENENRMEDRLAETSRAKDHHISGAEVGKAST

[7] = target: High affinity nerve growth factor receptor (Homo sapiens) (UniProt P04629); assay: Residual activity of TRK-A at 0.1 uM by microplate scintillation counting
Chain of High affinity nerve growth factor receptor (Homo sapiens) (P04629 33-796 limits assumed): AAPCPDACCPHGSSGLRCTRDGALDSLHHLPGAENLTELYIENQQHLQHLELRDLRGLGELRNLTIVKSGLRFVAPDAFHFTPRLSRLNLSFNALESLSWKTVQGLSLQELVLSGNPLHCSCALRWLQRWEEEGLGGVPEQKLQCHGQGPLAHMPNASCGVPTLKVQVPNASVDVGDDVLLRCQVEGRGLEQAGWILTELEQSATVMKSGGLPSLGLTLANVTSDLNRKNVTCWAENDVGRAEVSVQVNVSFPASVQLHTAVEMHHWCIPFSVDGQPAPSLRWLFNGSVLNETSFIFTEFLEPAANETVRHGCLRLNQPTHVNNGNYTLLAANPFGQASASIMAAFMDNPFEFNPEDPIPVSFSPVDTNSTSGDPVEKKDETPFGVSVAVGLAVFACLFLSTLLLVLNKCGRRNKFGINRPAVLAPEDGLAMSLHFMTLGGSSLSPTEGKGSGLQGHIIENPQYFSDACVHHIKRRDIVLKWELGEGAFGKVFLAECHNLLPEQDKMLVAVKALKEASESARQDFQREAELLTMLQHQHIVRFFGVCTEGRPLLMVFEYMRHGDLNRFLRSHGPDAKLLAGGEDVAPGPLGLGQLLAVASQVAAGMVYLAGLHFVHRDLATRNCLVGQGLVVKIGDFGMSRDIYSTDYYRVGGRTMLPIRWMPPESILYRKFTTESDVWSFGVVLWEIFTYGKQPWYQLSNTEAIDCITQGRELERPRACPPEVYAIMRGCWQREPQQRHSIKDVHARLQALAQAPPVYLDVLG

[8] = target: CDK9/cyclin T1 (Homo sapiens) (UniProt O60563+P50750); assay: Residual activity of CDK9/Cyclin T at 10 uM by microplate scintillation counting; type: protein-complex assay
[9] = target: T3, Serine/threonine-protein kinase 17A (Homo sapiens) (UniProt Q9UEE5); assay: Residual activity of STK17A at 10 uM by microplate scintillation counting
T3 sequence (whole entry): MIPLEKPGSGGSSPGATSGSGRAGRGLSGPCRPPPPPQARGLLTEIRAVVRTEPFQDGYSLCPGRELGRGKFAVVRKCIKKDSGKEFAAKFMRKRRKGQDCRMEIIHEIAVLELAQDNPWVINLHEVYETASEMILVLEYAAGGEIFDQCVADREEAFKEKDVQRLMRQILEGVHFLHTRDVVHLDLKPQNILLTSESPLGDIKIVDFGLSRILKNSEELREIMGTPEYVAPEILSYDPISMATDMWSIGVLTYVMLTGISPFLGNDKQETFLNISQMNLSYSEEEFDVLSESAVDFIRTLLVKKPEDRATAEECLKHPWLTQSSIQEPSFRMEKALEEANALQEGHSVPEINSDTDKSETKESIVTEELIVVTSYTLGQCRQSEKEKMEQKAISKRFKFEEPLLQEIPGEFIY

[10] = target: T4, Beta-adrenergic receptor kinase 1 (Homo sapiens) (UniProt P25098); assay: Residual activity of GRK2 at 1 uM by microplate scintillation counting
T4 sequence (whole entry): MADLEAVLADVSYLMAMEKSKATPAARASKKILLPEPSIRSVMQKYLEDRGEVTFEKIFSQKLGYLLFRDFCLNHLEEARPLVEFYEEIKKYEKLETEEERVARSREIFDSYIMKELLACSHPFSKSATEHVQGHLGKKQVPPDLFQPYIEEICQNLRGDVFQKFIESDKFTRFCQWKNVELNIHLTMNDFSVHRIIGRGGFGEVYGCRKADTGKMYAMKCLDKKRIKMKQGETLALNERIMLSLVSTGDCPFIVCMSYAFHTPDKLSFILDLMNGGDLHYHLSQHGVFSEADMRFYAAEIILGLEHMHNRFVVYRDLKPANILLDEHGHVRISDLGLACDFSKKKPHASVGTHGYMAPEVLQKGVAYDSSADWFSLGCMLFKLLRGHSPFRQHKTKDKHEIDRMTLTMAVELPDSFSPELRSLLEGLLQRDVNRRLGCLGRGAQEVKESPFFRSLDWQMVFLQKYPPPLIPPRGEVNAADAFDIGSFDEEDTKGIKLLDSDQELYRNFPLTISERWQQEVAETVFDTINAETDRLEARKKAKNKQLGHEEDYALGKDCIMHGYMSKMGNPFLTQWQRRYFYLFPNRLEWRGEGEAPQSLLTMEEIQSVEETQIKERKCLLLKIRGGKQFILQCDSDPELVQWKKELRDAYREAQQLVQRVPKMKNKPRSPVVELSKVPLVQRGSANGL

[11] = target: Tyrosine-protein kinase Yes (Homo sapiens) (UniProt P07947); assay: Residual activity of YES at 10 uM by microplate scintillation counting
Chain of Tyrosine-protein kinase Yes (Homo sapiens) (P07947 2-543 limits assumed): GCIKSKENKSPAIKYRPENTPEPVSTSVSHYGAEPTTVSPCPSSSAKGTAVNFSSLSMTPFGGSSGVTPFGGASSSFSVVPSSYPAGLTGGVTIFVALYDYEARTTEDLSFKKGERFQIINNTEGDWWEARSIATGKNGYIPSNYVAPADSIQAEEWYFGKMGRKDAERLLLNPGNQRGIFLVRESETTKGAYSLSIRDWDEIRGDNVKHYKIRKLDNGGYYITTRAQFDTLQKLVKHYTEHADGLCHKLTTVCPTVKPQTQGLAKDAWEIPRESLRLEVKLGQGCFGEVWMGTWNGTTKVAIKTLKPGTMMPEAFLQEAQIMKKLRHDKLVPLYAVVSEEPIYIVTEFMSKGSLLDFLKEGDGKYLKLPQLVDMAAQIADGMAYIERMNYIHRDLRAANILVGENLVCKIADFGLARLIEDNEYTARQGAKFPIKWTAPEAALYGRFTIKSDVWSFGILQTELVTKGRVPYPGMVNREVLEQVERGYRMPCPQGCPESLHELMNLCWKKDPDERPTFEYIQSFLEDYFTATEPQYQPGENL

[12] = target: Tyrosine-protein kinase BTK (Homo sapiens) (UniProt Q06187); assay: Residual activity of BTK at 1 uM by microplate scintillation counting
Chain of Tyrosine-protein kinase BTK (Homo sapiens) (Q06187 whole entry): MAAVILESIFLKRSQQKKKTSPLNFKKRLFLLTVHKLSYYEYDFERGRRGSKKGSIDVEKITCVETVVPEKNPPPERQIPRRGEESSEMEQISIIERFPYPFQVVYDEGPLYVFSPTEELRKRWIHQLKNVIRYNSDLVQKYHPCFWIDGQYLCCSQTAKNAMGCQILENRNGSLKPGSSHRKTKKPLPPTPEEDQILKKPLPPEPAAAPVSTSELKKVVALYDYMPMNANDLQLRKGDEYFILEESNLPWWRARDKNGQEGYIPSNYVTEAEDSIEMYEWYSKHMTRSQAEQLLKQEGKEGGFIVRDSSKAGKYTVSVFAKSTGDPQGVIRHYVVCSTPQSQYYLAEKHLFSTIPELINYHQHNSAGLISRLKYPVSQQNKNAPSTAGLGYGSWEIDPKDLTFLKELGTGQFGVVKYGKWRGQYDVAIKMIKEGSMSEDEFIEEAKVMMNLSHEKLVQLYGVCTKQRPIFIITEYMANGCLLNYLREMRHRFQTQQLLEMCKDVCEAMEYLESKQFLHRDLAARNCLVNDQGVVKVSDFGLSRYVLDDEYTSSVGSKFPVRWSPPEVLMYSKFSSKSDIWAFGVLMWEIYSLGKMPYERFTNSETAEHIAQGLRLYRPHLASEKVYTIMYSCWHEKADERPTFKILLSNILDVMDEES

[13] = target: Serine/threonine-protein kinase 16 (Homo sapiens) (UniProt O75716); assay: Residual activity of TSF1 at 10 uM by microplate scintillation counting
Chain of Serine/threonine-protein kinase 16 (Homo sapiens) (O75716 whole entry): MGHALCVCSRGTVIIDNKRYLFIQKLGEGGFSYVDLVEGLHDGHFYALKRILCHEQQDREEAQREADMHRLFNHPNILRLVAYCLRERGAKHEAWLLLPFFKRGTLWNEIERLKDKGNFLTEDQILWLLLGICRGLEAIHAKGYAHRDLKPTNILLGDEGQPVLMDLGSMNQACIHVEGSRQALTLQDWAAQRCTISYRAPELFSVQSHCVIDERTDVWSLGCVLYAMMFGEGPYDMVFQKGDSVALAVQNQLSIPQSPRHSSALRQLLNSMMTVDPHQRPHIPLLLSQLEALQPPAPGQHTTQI

[14] = target: NT-3 growth factor receptor (Homo sapiens) (UniProt Q16288); assay: Residual activity of TRK-C at 10 uM by microplate scintillation counting
Chain of NT-3 growth factor receptor (Homo sapiens) (Q16288 32-839 limits assumed): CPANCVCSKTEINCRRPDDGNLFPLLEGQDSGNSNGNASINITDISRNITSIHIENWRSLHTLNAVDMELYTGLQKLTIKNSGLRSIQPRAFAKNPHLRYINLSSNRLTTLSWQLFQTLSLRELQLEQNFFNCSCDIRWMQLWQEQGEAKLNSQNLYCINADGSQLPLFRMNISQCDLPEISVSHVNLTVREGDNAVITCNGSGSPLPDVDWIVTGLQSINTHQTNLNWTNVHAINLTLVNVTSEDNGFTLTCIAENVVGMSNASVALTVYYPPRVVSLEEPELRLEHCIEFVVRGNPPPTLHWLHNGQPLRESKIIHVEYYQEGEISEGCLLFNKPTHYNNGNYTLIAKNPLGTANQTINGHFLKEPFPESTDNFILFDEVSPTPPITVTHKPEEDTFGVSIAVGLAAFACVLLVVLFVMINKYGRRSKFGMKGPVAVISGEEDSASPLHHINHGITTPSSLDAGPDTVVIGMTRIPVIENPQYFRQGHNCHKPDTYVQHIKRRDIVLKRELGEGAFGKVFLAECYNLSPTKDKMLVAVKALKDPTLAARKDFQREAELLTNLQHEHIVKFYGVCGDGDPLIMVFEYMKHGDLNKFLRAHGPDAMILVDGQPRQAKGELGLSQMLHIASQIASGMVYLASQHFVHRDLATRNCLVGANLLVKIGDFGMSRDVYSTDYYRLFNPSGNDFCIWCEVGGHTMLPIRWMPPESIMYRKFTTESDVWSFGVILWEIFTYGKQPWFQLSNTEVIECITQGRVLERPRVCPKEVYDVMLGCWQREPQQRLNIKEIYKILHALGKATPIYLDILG

[15] = target: Serine/threonine-protein kinase 16 (Homo sapiens) (UniProt O75716); assay: Residual activity of TSF1 at 0.1 uM by microplate scintillation counting
[16] = target: RAC-alpha serine/threonine-protein kinase (Homo sapiens) (UniProt P31749); assay: Residual activity of AKT1 at 0.1 uM by microplate scintillation counting
Chain of RAC-alpha serine/threonine-protein kinase (Homo sapiens) (P31749 whole entry): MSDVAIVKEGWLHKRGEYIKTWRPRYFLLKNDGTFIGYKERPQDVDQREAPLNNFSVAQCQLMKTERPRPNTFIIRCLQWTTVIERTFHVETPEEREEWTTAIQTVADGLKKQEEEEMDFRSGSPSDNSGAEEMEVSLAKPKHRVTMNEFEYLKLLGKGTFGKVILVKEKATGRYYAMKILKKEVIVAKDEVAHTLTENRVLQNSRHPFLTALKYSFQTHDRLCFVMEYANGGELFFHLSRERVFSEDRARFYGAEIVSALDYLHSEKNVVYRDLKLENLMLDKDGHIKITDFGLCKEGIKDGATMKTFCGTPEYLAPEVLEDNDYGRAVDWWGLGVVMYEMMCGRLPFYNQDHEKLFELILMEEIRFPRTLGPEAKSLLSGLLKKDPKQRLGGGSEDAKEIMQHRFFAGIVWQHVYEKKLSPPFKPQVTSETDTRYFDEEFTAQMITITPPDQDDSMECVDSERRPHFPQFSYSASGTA

Row | Structure (SMILES) | residual activity [1] | residual activity [2] | residual activity [3] | residual activity [4] | residual activity [5] | residual activity [6] | residual activity [7] | residual activity [8] | residual activity [9] | residual activity [10] | residual activity [11] | residual activity [12] | residual activity [13] | residual activity [14] | residual activity [15] | residual activity [16]
1 | COc1cc2c(Oc3ccc(-c4nc5ccccc5s4)cc3)ncnc2cc1OCCCN1CCN(C)CC1 | 86% | 136% | 96% | 80% | 100% | 97% | 104% | 109% | 19% | 105% | 55% | 124% | 66% | 188% | 100% | 102%
2 | COc1cc2c(Oc3ccc(-c4nc5ccccc5s4)cc3)ncnc2cc1OCCCN1CCCC1 | 86% | 113% | 98% | 33% | 101% | 101% | 83% | 107% | 6% | 97% | 101% | 163% | 56% | 166% | 93% | 91%
3 | COc1cc2c(Oc3ccc(-c4nc5ccccc5s4)cc3F)ncnc2cc1OCCCN1CCN(C)CC1 | 94% | 86% | 98% | 58% | 94% | 96% | 88% | 107% | 1% | 85% | 14% | 114% | 59% | 132% | 102% | 100%
